One experiment relates to HBV-DNA in the serum. In words: Quantification of HBV-DNA in the serum by TaqMan PCR, patient under lamivudine treatment. The settings on record: one month before administration 2.4 × 10^6. It counts as in vivo. As for the experimental part: (§1) In order to isolate the HBV gene in Dane particles (the infective HBV particle: the complete HBV particle), the HBV gene in a serum from a HBV patient was purified using High Pure Viral Nucleic Acid kit (Roche Diagnostics) in the following method. One hundred μl of the serum from a HBV patient who received lamivudine treatment was mixed with 100 μl of the serum from a normal healthy subject to prepare 200 μl of a serum sample. To the serum sample, 200 μl of a working solution {50 μl of poly(A) carrier RNA (4 mg/ml) and 2.5 ml of the binding buffer [6 M guanidine-HCl, 10 mM urea, 10 mM Tris-HCl (pH 4.4), 20% Triton X-100 (v/v)]} and 50 μl of Proteinase K (18 mg/ml) were added and mixed, and incubated at 72° C. for 10 minutes.
(§2) One hundred μl of isopropanol and the sample were mixed, and the mixture was transferred into a High Pure filter tube. It was centrifuged at 8000 rpm for 1 minute, and after discarding the flowthrough, 500 μl of the inhibitor removal buffer [5 M guanidine-HCl, 20 mM Tris-HCl (pH 6.6)] was injected and then centrifuged at 8000 rpm for 1 minute. After adding 450 μl of the washing buffer [20 mM NaCl, 2 mM Tris-HCl (pH 7.5)], it was centrifuged at 8000 rpm for 1 minute. Then it was washed again in 450 μl of the washing buffer and was centrifuged at 13000 rpm for 10 seconds. Fifty μl of sterile water was added to the filter tube, which was centrifuged at 8000 rpm for 1 minute, and the flowthrough was collected to prepare a solution of the HBV gene in the serum.
The quantification of HBV-DNA in the serum was performed by the TaqMan PCR method that employs the Light Cycler (Roche Diagnostics). […]
The condition included pretreatment at 95° C. for 10 minutes, DNA denaturation at 95° C. for 5 seconds, annealing at 60° C. for 15 seconds and DNA synthesis at 72° C. for 8 seconds, and fluorescence emitted from the TaqMan probe was measured to quantify the amount of HBV-DNA in the serum (Table 1).

Experiment [1] deals with HBV gene (HBV-DNA and RNA) in the serum. The experiment is described as follows: Quantification of the HBV gene (DNA+RNA) in the serum by reverse transcription plus TaqMan PCR. It counts as in vivo, HBV patient. The settings on record: one month before administration 7.8 × 10^6. The method, then:
as §1, §2
In order to measure the amount of HBV gene in the serum, the step of the reverse transcriptase reaction was added. To 10 μl of the HBV gene solution, 1 μl of 20 mM dNTP Mix (10 mM dATP, 10 mM dGTP, 10 mM dCTP, 10 mM dTTP) and 0.2 μl of 10 μM HBS-R primer were mixed, and after incubated at 65° C. for 5 minutes, it was quickly cooled on ice. […]
By applying 4 μl of this reaction mixture to the above HBV-DNA quantification system, the amount of the HBV gene in the serum, i.e. the total amount of HBV-DNA and RNA in the serum, can be measured. […]
A general note: Quantitative PCR measures a nucleic acid by following its amplification.

The test system of a further experiment is HBV-RNA in the serum. The experiment is described as follows: Amount of HBV-RNA in the serum, estimated by subtracting HBV-DNA from HBV gene. The settings on record: one month before administration 5.4 × 10^6. It counts as in vivo, HBV patient. The method, then: In order to measure the amount of HBV gene in the serum, the step of the reverse transcriptase reaction was added. To 10 μl of the HBV gene solution, 1 μl of 20 mM dNTP Mix (10 mM dATP, 10 mM dGTP, 10 mM dCTP, 10 mM dTTP) and 0.2 μl of 10 μM HBS-R primer were mixed, and after incubated at 65° C. for 5 minutes, it was quickly cooled on ice. Four μl of 5× reverse transcription buffer [250 mM Tris-HCl (pH 8.3), 375 mM KCl, 15 mM MgCl2], 0.2 μl of 0.1 M DTT, 0.6 μl of RNase inhibitor (40 units/μl) and 3 μl of sterile water were mixed and then subjected to an annealing reaction at 42° C. for 2 minutes, to which 1 μl of the reverse transcriptase (200 units/μl) was added to prepare a 20 μl of a reaction mixture, which was subjected to a reverse transcription reaction at 42° C. for 50 minutes and the inactivation of the reverse transcriptase was performed at 70° C. for 15 minutes.
By applying 4 μl of this reaction mixture to the above HBV-DNA quantification system, the amount of the HBV gene in the serum, i.e. the total amount of HBV-DNA and RNA in the serum, can be measured. Also, by subtracting the amount of HBV-DNA from the amount of the HBV gene, the amount of HBV-RNA in the serum can be estimated (Table 1).

A further experiment concerns HBc antigen. The experiment is described as follows: Measurement of the amount of HBc antigen (sandwich immunoassay, luminescence). It counts as in vivo, HBV patient. The settings on record: serum, before administration 610. The source says:
Three monoclonal antibodies HB44 (recognition site: amino acids 31-49), HB61 (recognition site: amino acids 131-140) and HB114 (recognition site: amino acids 1-81) that react both HBc antigen and HBe antigen were coated and immobilized to a microtiter plate. After washing with PBS, it was blocked with a solution containing casein and, after removing the solution, it was dried.
Fifty μl of the pretreatment solution (15% sodium dodecyl sulfate [SDS], 3% CHAPS, 1% hexadecyltrimethyl ammonium bromide) was mixed with 100 μl of the sample (serum, plasma etc.) and treated at 70° C. for 30 minutes.
To each antibody-immobilized well, 100 μl of the reaction buffer (pH 8.0) and 50 μl of the pretreated sample were added, and the plate was reacted under gentle stirring at room temperature for 2 hours.
After washing the wells, 100 μl of a solution containing alkaline phosphatase-labelled HB50 (recognition site: amino acids 168-176) monoclonal antibody was added to each well, and the plate was incubated at room temperature for 1 hour.
After washing the wells, 100 μl of the CDP Star with Emerald II (Applied Biosystems) was added, and the intensity of luminescence after reacting at room temperature for 20 minutes was measured using a microtiter plate luminometer. It was compared to the intensity of luminescence of the standard antigen and the concentration of HBc antigen in the sample was calculated (Table 1).

Results on one molecule are retold here after patent US20070264646A1, “Hbv Particles Containing Hbv-Rna” (Advanced Life Science Institute, Inc., priority 2003, published 2007).

For `Nc1ccn([C@@H]2CS[C@H](CO)O2)c(=O)n1` [lamivudine], the “Amount of HBV-DNA” value is given as 1.0 × 10^2 copies/ml with HBV-DNA in the serum (8 months after administration), 0 copies/ml with HBV-DNA in the serum (19 months after administration) and 6.1×10^3 copies/ml with HBV-DNA in the serum (one month after administration of lamivudine). Also, the “Amount of HBV gene” value in experiment [1] (8 months after administration) is 7.2 × 10^3 copies/ml; in experiment [1] (19 months after administration) it was 2.2 × 10^3 copies/ml; in experiment [1] (one month after administration), 1.1 × 10^5 copies/ml. Further, the entries for the “Amount of HBV-RNA” value in the experiment with HBV-RNA in the serum (8 months after administration), in the experiment on HBV-RNA in the serum (19 months after administration) and in the experiment with HBV-RNA in the serum (one month after administration) were 7.1 × 10^3 copies/ml, 2.2 × 10^3 copies/ml and 1.0×10^5 copies/ml, respectively. Moreover, the entries for the “Amount of HBc antigen” value with HBc antigen (8 months after administration), in the experiment with HBc antigen (19 months after administration) and in the experiment with HBc antigen (one month after administration) were 21 pg/mL, 20 pg/mL and 56 pg/mL, respectively.
